Where two headings read alike, the source gives them in different places.
What was measured:
[1] = biological target: CDK7/Cyclin H/MAT1 complex (Homo sapiens, UniProt P50613); test: CDK7 inhibition assay (Caliper/LabChip EZ Reader kinase assay); assay type: biochemical; conditions: Table 1, CDK7/Cyclin H/MAT1 6 nM, ATP 2 mM, 35 min at 27° C.
Method in brief: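 A Perkin Elmer Caliper/LabChip EZ Reader (Waltham, MA) platform served as the basis for this CDK7 kinase inhibition assay. The work was carried out by Biortus Biosciences, located in Jiangyin, Jiangsu Province, P.R. of China. Each CDK studied had its own kinase assay, and compounds were evaluated for their ability to block CDK7 activity.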

[2] = biological target: T1, CDK12 (aa686-1082)/Cyclin K complex (Homo sapiens, UniProt Q9NYV4); test: CDK12 inhibition assay (Caliper/LabChip EZ Reader kinase assay); assay type: biochemical; conditions: Table 1, CDK12 (aa686-1082)/Cyclin K 50 nM, ATP 2 mM, 3 hr at 27° C.
T1 construct: CDK12 (aa686-1082)/Cyclin K complex

HCC70 cells = test: Inhibition of proliferation of HCC70 cells (CyQUANT Direct Cell Proliferation Assay, 72 hour); assay type: cell-based, human
Method in brief: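 Human triple-negative breast cancer HCC70 cells cultured at 37° C, 5% CO2, with compound for 72 hour. Anti-proliferative effect read by CyQUANT Direct Cell Proliferation Assay. Dinaciclib, a CDK inhibitor analog and triptolide served as positive controls.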

CDK9/Cyclin T1 complex = CDK9/Cyclin T1 complex (Homo sapiens, UniProt P50750); test: CDK9 inhibition assay (Caliper/LabChip EZ Reader kinase assay); assay type: biochemical; conditions: Table 1, CDK9/Cyclin T1 8 nM, ATP 2 mM, 15 min at 27° C.
Method in brief: (§1)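 Caliper/LabChip EZ Reader mobility-shift assays. CDK9/Cyclin T1 at 8 nM with 2 μM 5-FAM-CDK9tide peptide and 10 mM MgCl2; CDK2/Cyclin E1 at 0.5 nM with 2 μM 5-FAM-CDK7tide and 2 mM MgCl2.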

A673 cells = test: Inhibition of proliferation of A673 cells (CyQUANT, 72 hour); assay type: cell-based, human; conditions: A673 cells, 72 hour, CyQUANT, read-out: Inhibition of Proliferation of A673 Cells (calculated IC50)
Method in brief: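 Human Ewing's sarcoma A673 cells in DMEM with 10% FBS and 1 mM sodium pyruvate, 37° C, 5% CO2, treated 72 h with compound from 4 μM to […] (0.5 log dilutions). Antiproliferative effect read by CyQUANT assay.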

CDK2/Cyclin E1 complex = CDK2/Cyclin E1 complex (Homo sapiens, UniProt P24941); test: CDK2 inhibition assay (Caliper/LabChip EZ Reader kinase assay); assay type: biochemical; conditions: Table 1, CDK2/Cyclin E1 0.5 nM, ATP 2 mM, 35 min at 27° C.
Method in brief: as §1

[3] = Homo sapiens, HCC70, 72 h, read-out: Inhibition of Proliferation of HCC70 Cells (calculated IC50)

T1 sequence (Q9NYV4 686-1082, species assumed): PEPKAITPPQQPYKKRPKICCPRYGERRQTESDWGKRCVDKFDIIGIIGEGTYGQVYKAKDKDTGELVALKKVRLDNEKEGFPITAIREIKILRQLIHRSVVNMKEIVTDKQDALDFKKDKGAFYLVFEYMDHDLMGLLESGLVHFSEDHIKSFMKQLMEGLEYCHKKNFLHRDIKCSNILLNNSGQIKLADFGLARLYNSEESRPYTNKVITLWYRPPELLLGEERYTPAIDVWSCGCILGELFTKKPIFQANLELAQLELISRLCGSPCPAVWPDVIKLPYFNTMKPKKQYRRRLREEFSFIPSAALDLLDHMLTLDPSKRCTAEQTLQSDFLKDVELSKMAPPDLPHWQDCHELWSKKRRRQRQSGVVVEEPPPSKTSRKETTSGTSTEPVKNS
T1 sequence (O75909 whole entry partner, species assumed, the tested form may be a part): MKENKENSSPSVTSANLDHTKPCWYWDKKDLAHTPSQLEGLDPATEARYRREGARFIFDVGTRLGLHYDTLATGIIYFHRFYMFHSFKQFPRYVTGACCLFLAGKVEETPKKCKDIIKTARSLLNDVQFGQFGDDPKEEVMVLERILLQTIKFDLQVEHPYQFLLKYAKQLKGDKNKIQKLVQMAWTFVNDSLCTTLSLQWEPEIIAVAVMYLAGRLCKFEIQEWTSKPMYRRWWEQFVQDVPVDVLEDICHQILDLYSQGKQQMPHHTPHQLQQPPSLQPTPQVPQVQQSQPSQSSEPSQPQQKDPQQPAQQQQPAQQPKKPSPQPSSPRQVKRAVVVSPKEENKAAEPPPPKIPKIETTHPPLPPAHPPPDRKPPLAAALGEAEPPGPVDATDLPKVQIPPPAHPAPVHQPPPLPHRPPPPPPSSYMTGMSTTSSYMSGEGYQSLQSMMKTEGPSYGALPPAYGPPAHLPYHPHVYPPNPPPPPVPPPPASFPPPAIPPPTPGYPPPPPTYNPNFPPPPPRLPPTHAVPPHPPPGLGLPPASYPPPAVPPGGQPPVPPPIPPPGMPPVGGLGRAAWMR
CDK9/Cyclin T1 complex, sequence (P50750 whole entry, species assumed): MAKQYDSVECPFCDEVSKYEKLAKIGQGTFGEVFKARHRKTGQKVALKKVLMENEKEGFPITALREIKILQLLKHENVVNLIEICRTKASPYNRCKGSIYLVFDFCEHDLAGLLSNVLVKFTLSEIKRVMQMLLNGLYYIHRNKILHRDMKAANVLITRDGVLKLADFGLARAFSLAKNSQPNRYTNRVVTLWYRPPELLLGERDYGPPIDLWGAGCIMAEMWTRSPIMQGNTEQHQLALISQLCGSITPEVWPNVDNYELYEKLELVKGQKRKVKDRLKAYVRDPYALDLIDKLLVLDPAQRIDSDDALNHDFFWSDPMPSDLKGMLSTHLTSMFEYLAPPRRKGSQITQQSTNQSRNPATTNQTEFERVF
CDK9/Cyclin T1 complex, sequence (O60563 whole entry partner, species assumed): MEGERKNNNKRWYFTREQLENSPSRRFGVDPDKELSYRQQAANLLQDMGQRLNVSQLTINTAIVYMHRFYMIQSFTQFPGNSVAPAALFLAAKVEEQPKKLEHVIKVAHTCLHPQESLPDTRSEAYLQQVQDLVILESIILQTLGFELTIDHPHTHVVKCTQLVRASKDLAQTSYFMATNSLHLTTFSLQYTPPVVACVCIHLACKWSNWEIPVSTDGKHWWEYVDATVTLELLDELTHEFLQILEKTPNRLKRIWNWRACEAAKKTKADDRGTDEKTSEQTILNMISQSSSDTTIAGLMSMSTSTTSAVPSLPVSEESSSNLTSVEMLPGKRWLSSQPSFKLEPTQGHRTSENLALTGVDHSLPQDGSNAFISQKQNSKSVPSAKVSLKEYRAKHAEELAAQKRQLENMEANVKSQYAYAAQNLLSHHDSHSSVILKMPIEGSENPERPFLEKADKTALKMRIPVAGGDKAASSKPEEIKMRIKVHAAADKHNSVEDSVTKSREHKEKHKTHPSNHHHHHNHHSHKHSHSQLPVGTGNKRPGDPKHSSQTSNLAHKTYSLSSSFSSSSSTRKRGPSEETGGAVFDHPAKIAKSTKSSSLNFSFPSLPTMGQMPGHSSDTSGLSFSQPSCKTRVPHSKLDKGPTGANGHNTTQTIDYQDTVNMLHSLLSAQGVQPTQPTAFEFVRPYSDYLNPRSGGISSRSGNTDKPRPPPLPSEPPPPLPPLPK
CDK7/Cyclin H/MAT1 complex, sequence (P50613 whole entry, species assumed): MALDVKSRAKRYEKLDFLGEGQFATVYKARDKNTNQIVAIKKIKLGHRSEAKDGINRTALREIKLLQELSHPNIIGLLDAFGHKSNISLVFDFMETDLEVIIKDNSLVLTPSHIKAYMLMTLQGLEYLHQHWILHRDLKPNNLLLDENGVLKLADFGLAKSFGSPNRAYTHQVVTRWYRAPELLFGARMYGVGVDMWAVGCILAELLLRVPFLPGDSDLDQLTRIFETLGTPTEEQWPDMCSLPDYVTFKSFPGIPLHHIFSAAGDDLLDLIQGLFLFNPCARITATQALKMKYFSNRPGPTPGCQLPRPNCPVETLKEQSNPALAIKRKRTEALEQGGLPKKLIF
CDK7/Cyclin H/MAT1 complex, sequence (P51946 whole entry partner, species assumed): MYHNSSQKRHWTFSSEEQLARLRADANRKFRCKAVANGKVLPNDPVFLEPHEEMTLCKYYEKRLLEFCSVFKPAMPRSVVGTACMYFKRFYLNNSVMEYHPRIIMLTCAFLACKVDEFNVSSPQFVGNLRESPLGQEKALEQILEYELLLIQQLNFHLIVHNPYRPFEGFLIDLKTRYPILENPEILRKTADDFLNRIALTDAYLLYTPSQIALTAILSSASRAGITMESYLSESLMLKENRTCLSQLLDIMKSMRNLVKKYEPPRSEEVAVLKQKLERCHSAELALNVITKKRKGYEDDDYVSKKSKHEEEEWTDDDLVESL
CDK7/Cyclin H/MAT1 complex, sequence (P51948 whole entry partner, species assumed): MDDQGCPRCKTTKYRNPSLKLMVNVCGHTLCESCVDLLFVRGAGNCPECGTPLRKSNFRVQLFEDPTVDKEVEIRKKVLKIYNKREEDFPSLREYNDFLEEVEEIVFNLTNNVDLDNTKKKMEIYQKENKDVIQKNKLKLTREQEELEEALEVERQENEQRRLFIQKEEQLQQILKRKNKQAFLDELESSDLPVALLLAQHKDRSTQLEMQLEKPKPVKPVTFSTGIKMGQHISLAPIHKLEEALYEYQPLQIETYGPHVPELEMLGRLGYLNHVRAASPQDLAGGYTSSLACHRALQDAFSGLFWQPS

| SMILES | IC50 [1] | IC50 [2] | IC50 (CDK9/Cyclin T1 complex) | IC50 (CDK2/Cyclin E1 complex) | IC50 (HCC70 cells; [3]) | IC50 (A673 cells) | IC50 (A673 cells; Homo sapiens, A673, 72 h) | other results |
| --- | --- | --- | --- | --- | --- | --- | --- | --- |
| FC(F)(F)c1cnc(N[C@H]2CCCNC2)nc1-c1c[nH]c2cc(-c3cccc(Oc4ccccc4)c3)ccc12 [Compound 341, 4-[6-(3-phenoxyphenyl)-1H-indol-3-yl]-N-[(3S)-3-piperidyl]-5 (trifluoromethyl) pyrimidin-2-amine] | 200 to 5000 nM | > 5000 nM | > 5000 nM | > 5000 nM | 1000 to 5000 nM | < 20 nM | – | IC50 ([1]; listed as 141): < 20 nM; IC50 ([2]; listed as 141): 200 to 5000 nM; IC50 (HCC70 cells; listed as 141, read-out: Inhibition of Proliferation of HCC70 Cells (calculated IC50)): < 100 nM; IC50 (CDK9/Cyclin T1 complex; listed as 141): 200 to 5000 nM; IC50 (CDK2/Cyclin E1 complex; listed as 141): 200 to 5000 nM |
| O=c1[nH]cc(-c2ccc3c(-c4nc(N[C@H]5CCCNC5)ncc4C(F)(F)F)c[nH]c3c2)c(=O)[nH]1 [Compound 333, 5-[3-[2-[[(3S)-3-piperidyl]amino]-5-(trifluoromethyl)pyrimidin-4-yl]-1H-indol-6-yl]-1H-pyrimidine-2,4-dione] | < 20 nM | 200 to 5000 nM | > 5000 nM | > 5000 nM | 1000 to 5000 nM | 200 to 5000 nM | – | IC50 ([1]; listed as 139): 20 to 200 nM; IC50 ([2]; listed as 139): > 5000 nM; IC50 (CDK9/Cyclin T1 complex; listed as 139): > 5000 nM; IC50 (CDK2/Cyclin E1 complex; listed as 139): > 5000 nM |

Further lines, with some results ahead:

| IC50 [1] | IC50 [2] | IC50 (CDK9/Cyclin T1 complex) | IC50 (CDK2/Cyclin E1 complex) | SMILES | IC50 (HCC70 cells; [3]) | IC50 (A673 cells) | IC50 (A673 cells; Homo sapiens, A673, 72 h) | other results |
| --- | --- | --- | --- | --- | --- | --- | --- | --- |
| < 20 nM | 200 to 5000 nM | 200 to 5000 nM | 200 to 5000 nM | N#C[C@@H]1CCN(C(=O)c2ccc3c(-c4nc(N[C@H]5CCCNC5)ncc4C(F)(F)F)c[nH]c3c2)C1 [Compound 292, (3R)-1-[3-[2-[[(3S)-3-piperidyl]amino]-5-(trifluoromethyl)pyrimidin-4-yl]-1H-indole-6-carbonyl] pyrrolidine-3-carbonitrile] | 100 to 1000 nM | – | 20 to 200 nM | IC50 ([1]; listed as 107): 20 to 200 nM; IC50 ([2]; listed as 107): 20 to 200 nM; IC50 (CDK9/Cyclin T1 complex; listed as 107): 200 to 5000 nM; IC50 (A673 cells; listed as 107): < 20 nM; IC50 (CDK2/Cyclin E1 complex; listed as 107): 200 to 5000 nM |
| < 20 nM | 200 to 5000 nM | 200 to 5000 nM | 200 to 5000 nM | Cn1ccc(-c2ccc3c(-c4nc(N[C@H]5CCCNC5)ncc4C(F)(F)F)c[nH]c3c2)n1 [Compound 303, 4-[6-(1-methylpyrazol-3-yl)-1H-indol-3-yl]-N-[(3S)-3-piperidyl]-5-(trifluoromethyl) pyrimidin-2-amine] | 100 to 1000 nM | 200 to 5000 nM | – | IC50 ([1]; listed as 113): 20 to 200 nM; IC50 ([2]; listed as 113): 200 to 5000 nM; IC50 (CDK9/Cyclin T1 complex; listed as 113): > 5000 nM; IC50 (CDK2/Cyclin E1 complex; listed as 113): > 5000 nM |
| < 20 nM | 200 to 5000 nM | > 5000 nM | 200 to 5000 nM | O=C(C1CCC(Nc2ncc(C(F)(F)F)c(-c3c[nH]c4ccccc34)n2)CN1)N1CCC(O)C1 (mixture of isomers) [Compound 250] | 1000 to 5000 nM | 200 to 5000 nM | – | – |
| < 20 nM | 200 to 5000 nM | 200 to 5000 nM | 200 to 5000 nM | CCN1CCC[C@H](Nc2ncc(C(F)(F)F)c(-c3c[nH]c4cc(C#N)ccc34)n2)C1 [Compound 284] | 100 to 1000 nM | – | 20 to 200 nM | – |

From patent US20240360165A1, “INHIBITORS OF CYCLIN DEPENDENT KINASE 7 (CDK7)” (Syros Pharmaceuticals, Inc., priority 2016, published 2024)
